According to patent publication US12599672B2, “KRAS proteolysis targeting chimeras” (PAQ Therapeutics Inc., priority 2023, dated 2026):

Legend:
Assay type in all cases: cell-based
[1] = target: T1, KRAS G12D (Homo sapiens, UniProt P01116, G12D); assay: KRAS G12D HiBit assay; settings: AsPc-1-KRAS (G12D)-HiBit-KI cell, compound treatment for 24 hours, absolute DC50
T1 construct: AsPc-1-KRAS (G12D)-HiBit-KI cell (Pharmaron); host or cells: AsPc-1-KRAS (G12D)-HiBit-KI cells (HiBiT knock-in at the endogenous KRAS locus)
T1 sequence (P01116 1-188 isoform P01116-2 G12D): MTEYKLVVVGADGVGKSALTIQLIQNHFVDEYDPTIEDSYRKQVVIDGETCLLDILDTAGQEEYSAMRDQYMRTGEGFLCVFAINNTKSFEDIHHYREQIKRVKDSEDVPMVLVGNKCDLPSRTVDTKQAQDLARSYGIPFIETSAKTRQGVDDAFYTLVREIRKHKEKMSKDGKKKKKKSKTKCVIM
In short: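 HiBiT luminescence, detected by adding lytic buffer, substrate and LgBiT protein, served as the KRAS G12D read-out. Compounds, serially diluted 3-fold over 10 points from 0.3 mM DMSO stock, were on cells for 24 h; percent inhibition normalized to cells given 0.1% DMSO only.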

[2] = target: T2, KRAS G12V (Homo sapiens, UniProt P01116, G12V); assay: KRAS G12V HiBit assay; settings: SW620-KRAS (G12V)-HiBit-KI cells, compound treatment for 24 hours
T2 construct: SW620-KRAS (G12V)-HiBit-KI cell (Pharmaron); host or cells: SW620-KRAS (G12V)-HiBit-KI cells (HiBiT knock-in at the endogenous KRAS locus)
T2 sequence (P01116 1-188 isoform P01116-2 G12V): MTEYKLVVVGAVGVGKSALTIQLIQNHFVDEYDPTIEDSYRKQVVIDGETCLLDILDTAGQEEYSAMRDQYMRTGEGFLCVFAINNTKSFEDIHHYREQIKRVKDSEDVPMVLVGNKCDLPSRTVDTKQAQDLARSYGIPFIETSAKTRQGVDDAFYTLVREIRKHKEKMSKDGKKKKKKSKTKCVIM
In short: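 Luminescence from lytic Nano-Glo HiBiT detection with LgBiT read KRAS G12V levels after 24 h compound exposure. Dilutions were 10-point, 3-fold, from a 0.3 mM DMSO stock. Degradation activity was normalised to cells given 0.1% DMSO alone.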

[3] = target: T3, KRAS (Homo sapiens, UniProt P01116); assay: KRASamp MSD assay; settings: KE39 (KRAS amplified) cells, treated with test compounds for 24 hr, MSD readout of KRAS degradation
T3 construct: endogenous in cells; host or cells: KE39 (KRAS amplified) cells
T3 sequence (P01116 1-188 isoform P01116-2): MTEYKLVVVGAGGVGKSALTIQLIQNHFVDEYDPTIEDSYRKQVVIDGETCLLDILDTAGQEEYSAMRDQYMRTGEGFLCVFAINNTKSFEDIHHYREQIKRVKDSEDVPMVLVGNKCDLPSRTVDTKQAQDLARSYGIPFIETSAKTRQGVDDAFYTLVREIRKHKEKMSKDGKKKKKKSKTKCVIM
In short: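 Degradation DC50 derived by curve fitting, with KRAS levels quantified by MSD electrochemiluminescence (capture/detection antibodies, recombinant WT KRAS standard). Lysates prepared from KE39 cells (KRAS amplified) exposed to test compounds for 24 hr.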

[4] = numeric bounds given in place of class symbols

| Compound | DC50 ([1]; class symbols) [µM] | DC50 ([2]; numeric bounds) [µM] | DC50 [3] [µM] | DC50 [1, 4] [µM] | DC50 ([2]; class symbols) [µM] |
| --- | --- | --- | --- | --- | --- |
| CCc1c(F)ccc2cc(O)cc(-c3ncc4c(N5CCC[C@@](C)(O)C5)nc(OC[C@@]56CCCN5[C@@H](COC(=O)N5CCC(CN7CCC(c8ccc9c(c8)n(C)c(=O)n9C8CCC(=O)NC8=O)CC7)CC5)CC6)nc4c3F)c12 (stereo partly drawn) [Compound 389, ((3R,7aS)-7a-(((7-(8-ethyl-7-fluoro-3-hydroxynaphthalen-1-yl)-8-fluoro-4-((R)-3-hydroxy-3-methylpiperidin-1-yl)pyrido[4,3-d]pyrimidin-2-yl)oxy)methyl)hexahydro-1H-pyrrolizin-3-yl)methyl 4-((4-(1-(2,6-dioxopiperidin-3-yl)-3-methyl-2-oxo-2,3-dihydro-1H-benzo[d]imidazol-5-yl)piperidin-1-yl)methyl)piperidine-1-carboxylate] | < 0.1 | > 0.0705 | 0.001 to 0.01 |  |  |
| CCc1c(F)ccc2cc(O)cc(-c3ncc4c(N5CCCC5)nc(OC[C@@]56CCCN5[C@H](COC(=O)N5CCC7(CC5)CC(N5CCC(c8ccc9c(c8)n(C)c(=O)n9C8CCC(=O)NC8=O)CC5)C7)CC6)nc4c3F)c12 (stereo partly drawn) [Compound 348, ((3S,7aS)-7a-(((7-(8-ethyl-7-fluoro-3-hydroxynaphthalen-1-yl)-8-fluoro-4-(pyrrolidin-1-yl)pyrido[4,3-d]pyrimidin-2-yl)oxy)methyl)hexahydro-1H-pyrrolizin-3-yl)methyl 2-(4-(1-(2,6-dioxopiperidin-3-yl)-3-methyl-2-oxo-2,3-dihydro-1H-benzo[d]imidazol-5-yl)piperidin-1-yl)-7-azaspiro[3.5]nonane-7-carboxylate] |  |  | ≥ 0.01 | > 0.1 | > 0.1 |
| CCc1c(F)ccc2cc(O)cc(-c3ncc4c(N5CCC[C@@](C)(O)C5)nc(OC[C@@]56CCCN5[C@H](COC(=O)c5ccc(CN7CCC(c8ccc9c(c8)n(C)c(=O)n9C8CCC(=O)NC8=O)CC7)cc5)CC6)nc4c3F)c12 (stereo partly drawn) [Compound 154] | < 0.1 |  | < 0.001 |  | < 0.01 |
| CCc1c(F)ccc2cc(O)cc(-c3ncc4c(N5CCC[C@@](C)(O)C5)nc(OC[C@]56CCCN5[C@H](COC(=O)N5CCC(c7cccc8c7n(C)c(=O)n8C7CCC(=O)NC7=O)CC5)CC6)nc4c3F)c12 (stereo partly drawn) [Compound 310, ((3S,7aR)-7a-(((7-(8-ethyl-7-fluoro-3-hydroxynaphthalen-1-yl)-8-fluoro-4-((R)-3-hydroxy-3-methylpiperidin-1-yl)pyrido[4,3-d]pyrimidin-2-yl)oxy)methyl)hexahydro-1H-pyrrolizin-3-yl)methyl 4-(1-(2,6-dioxopiperidin-3-yl)-3-methyl-2-oxo-2,3-dihydro-1H-benzo[d]imidazol-4-yl)piperidine-1-carboxylate] |  |  | 0.001 to 0.01 | > 0.1 | > 0.1 |
| CCc1c(F)ccc2cc(O)cc(-c3ncc4c(N5CC6CC6C5)nc(OC[C@@]56CCCN5[C@H](COC(=O)N5CCC7(CC5)CC(N5CCC(c8ccc9c(c8)n(C)c(=O)n9C8CCC(=O)NC8=O)CC5)C7)CC6)nc4c3F)c12 (stereo partly drawn) [Compound 346, ((3S,7aS)-7a-(((4-(3-azabicyclo[3.1.0]hexan-3-yl)-7-(8-ethyl-7-fluoro-3-hydroxynaphthalen-1-yl)-8-fluoropyrido[4,3-d]pyrimidin-2-yl)oxy)methyl)hexahydro-1H-pyrrolizin-3-yl)methyl 2-(4-(1-(2,6-dioxopiperidin-3-yl)-3-methyl-2-oxo-2,3-dihydro-1H-benzo[d]imidazol-5-yl)piperidin-1-yl)-7-azaspiro[3.5]nonane-7-carboxylate] | < 0.1 |  | 0.001 to 0.01 |  | 0.01 to 0.1 |
| C#Cc1c(F)ccc2cc(O)cc(-c3ncc4c(N5CCCC(F)(F)C5)nc(OC[C@]56CCCN5[C@H](COC(=O)N5CCC(CN7CCC(c8ccc9c(c8)n(C)c(=O)n9C8CCC(=O)NC8=O)CC7)CC5)CC6)nc4c3F)c12 (stereo partly drawn) [Compound 431, ((3S,7aR)-7a-(((4-(3,3-difluoropiperidin-1-yl)-7-(8-ethynyl-7-fluoro-3-hydroxynaphthalen-1-yl)-8-fluoropyrido[4,3-d]pyrimidin-2-yl)oxy)methyl)hexahydro-1H-pyrrolizin-3-yl)methyl 4-((4-(1-(2,6-dioxopiperidin-3-yl)-3-methyl-2-oxo-2,3-dihydro-1H-benzo[d]imidazol-5-yl)piperidin-1-yl)methyl)piperidine-1-carboxylate] |  |  | 0.001 to 0.01 | > 0.1 | < 0.01 |
| CCc1c(F)ccc2cc(O)cc(-c3ncc4c(N5CCC[C@@](C)(O)C5)nc(OC[C@@]56CCCN5[C@H](COC(=O)N5CCC(CN7CCC(c8ccc9c(c8)n(C)c(=O)n9C8CCC(=O)NC8=O)C7)CC5)CC6)nc4c3F)c12 (stereo partly drawn) [Compound 435, ((3S,7aS)-7a-(((7-(8-ethyl-7-fluoro-3-hydroxynaphthalen-1-yl)-8-fluoro-4-((R)-3-hydroxy-3-methylpiperidin-1-yl)pyrido[4,3-d]pyrimidin-2-yl)oxy)methyl)hexahydro-1H-pyrrolizin-3-yl)methyl 4-((3-(1-(2,6-dioxopiperidin-3-yl)-3-methyl-2-oxo-2,3-dihydro-1H-benzo[d]imidazol-5-yl)pyrrolidin-1-yl)methyl)piperidine-1-carboxylate] | < 0.1 |  | 0.001 to 0.01 |  | 0.01 to 0.1 |
| CCc1c(F)ccc2cc(O)cc(-c3ncc4c(N5CCC[C@@](C)(O)C5)nc(OC[C@@]56CCCN5[C@H](COC(=O)N5CCC(F)(CN7CCC(c8ccc9c(c8)n(C)c(=O)n9C8CCC(=O)NC8=O)CC7)CC5)CC6)nc4c3F)c12 (stereo partly drawn) [Compound 156, ((3S,7AS)-7a-(((7-(8-ethyl-7-fluoro-3-hydroxynaphthalen-1-yl)-8-fluoro-4-((R)-3-hydroxy-3-methylpiperidin-1-yl)pyrido[4,3-d]pyrimidin-2-yl)oxy)methyl)hexahydro-1H-pyrrolizin-3-yl)methyl 4-((4-(1-(2,6-dioxopiperidin-3-yl)-3-methyl-2-oxo-2,3-dihydro-1H-benzo[d]imidazol-5-yl)piperidin-1-yl)methyl)-4-fluoropiperidine-1-carboxylate] | < 0.1 |  | < 0.001 |  | < 0.01 |
| CCc1c(F)ccc2cc(O)cc(-c3ncc4c(N5CCC[C@@](C)(O)C5)nc(OC[C@@]56CCCN5[C@H](CN5CCC7(CC5)CC(N5CCC(c8ccc9c(c8)n(C)c(=O)n9C8CCC(=O)NC8=O)CC5)C7)CC6)nc4c3F)c12 (stereo partly drawn) [Compound 471, 3-(5-(1-(7-(((3S,7aS)-7a-(((7-(8-Ethyl-7-fluoro-3-hydroxynaphthalen-1-yl)-8-fluoro-4-((R)-3-hydroxy-3-methylpiperidin-1-yl)pyrido[4,3-d]pyrimidin-2-yl)oxy)methyl)hexahydro-1H-pyrrolizin-3-yl)methyl)-7-azaspiro[3.5]nonan-2-yl)piperidin-4-yl)-3-methyl-2-oxo-2,3-dihydro-1H-benzo[d]imidazol-1-yl) piperidine-2,6-dione] | < 0.1 |  | 0.001 to 0.01 |  | > 0.1 |
| CCc1c(F)ccc2cc(O)cc(-c3ncc4c(N5CCC[C@@](C)(O)C5)nc(OC[C@]56CCCN5[C@H](COC(=O)N5CCC(c7ccc8c(c7)n(C)c(=O)n8C7CCC(=O)NC7=O)CC5)CC6)nc4c3F)c12 (stereo partly drawn) [Compound 307, ((3S,7aR)-7a-(((7-(8-ethyl-7-fluoro-3-hydroxynaphthalen-1-yl)-8-fluoro-4-((R)-3-hydroxy-3-methylpiperidin-1-yl)pyrido[4,3-d]pyrimidin-2-yl)oxy)methyl)hexahydro-1H-pyrrolizin-3-yl)methyl 4-(1-(2,6-dioxopiperidin-3-yl)-3-methyl-2-oxo-2,3-dihydro-1H-benzo[d]imidazol-5-yl)piperidine-1-carboxylate] | < 0.1 |  | 0.001 to 0.01 |  | > 0.1 |
| C#Cc1cc(F)cc2cc(O)cc(-c3ncc4c(N5CCC[C@@](C)(O)C5)nc(OC[C@@]56CCCN5[C@H](COC(=O)N5CCC(CN7CCC(c8ccc9c(c8)n(C)c(=O)n9C8CCC(=O)NC8=O)CC7)CC5)CC6)nc4c3F)c12 (stereo partly drawn) [Compound 405, ((3S,7aS)-7a-(((7-(8-Ethynyl-6-fluoro-3-hydroxynaphthalen-1-yl)-8-fluoro-4-((R)-3-hydroxy-3-methylpiperidin-1-yl)pyrido[4,3-d]pyrimidin-2-yl)oxy)methyl)hexahydro-1H-pyrrolizin-3-yl)methyl 4-((4-(1-(2,6-dioxopiperidin-3-yl)-3-methyl-2-oxo-2,3-dihydro-1H-benzo[d]imidazole-5-yl)piperidin-1-yl)methyl) piperidine-1-carboxylate] | < 0.1 |  | 0.001 to 0.01 |  | 0.01 to 0.1 |
